Converted amounts (≈) assume the structure as drawn. Read-outs that look alike come from different tables or passages of the source. Where a SMILES comes first, the peptide text is derived from it. Where no end group is shown, it is not given here. [ ]: non-standard residue; d: D form.
What was measured:
E. coli 25922 = assay: microbe, parasite or virus in culture; assay type: cell-based, Escherichia coli
Protocol: (§1) The test strains, including Gram-negative E. coli ATCC25922, E. coli ATCC 1005, S. typhimurium C7731, P. aeruginosa ATCC 27853, S. Typhimurium 14028, Gram-positive S. aureus ATCC29213, S. aureus ATCC 25923, S. epidermidis ATCC 12228 and S. aureus 43300, were obtained from the School of Veterinary Medicine, Northeast Agricultural University (Harbin, China).
(§2) Briefly, the bacteria were incubated overnight at 37 °C with constant shaking at 220 rpm, then were transferred to new MH broth (MHB) medium until they reached the logarithmic phase of growth. The bacteria were then diluted to 10^5 (CFU)/mL in MHB. The peptides were dissolved and diluted in 0.01% acetic acid and 0.2% bovine serum albumin (BSA) at various concentrations (0.5–128 μM) in each well of sterile 96-well plates and incubated for 20 h at 37 °C. […] The test was repeated three times.

E. coli UB 1005 = assay: microbe, parasite or virus in culture; assay type: cell-based, Escherichia coli
Protocol: as §1, §2

S. aureus 25923 = assay: microbe, parasite or virus in culture; assay type: cell-based, Staphylococcus aureus
Protocol: as §1, §2

S. aureus 29213 = assay: microbe, parasite or virus in culture; assay type: cell-based, Staphylococcus aureus
Protocol: as §1, §2

MRSA43300 = assay: microbe, parasite or virus in culture; assay type: cell-based, Methicillin-resistant Staphylococcus aureus
Protocol: as §1, §2

P. aeruginosa 27853 = assay: microbe, parasite or virus in culture; assay type: cell-based
Protocol: as §1, §2

S. epidermidis 12228 = assay: microbe, parasite or virus in culture; assay type: cell-based
Protocol: as §1, §2

S. typhimurium 14028 = assay: microbe, parasite or virus in culture; assay type: cell-based
Protocol: as §1, §2

S. typhimurium 7731 = assay: microbe, parasite or virus in culture; assay type: cell-based
Protocol: as §1, §2

[1] = test system: gram-negative strains tested; assay: Geometric mean of MICs, gram-negative strains; assay type: cell-based; details: 5 gram-negative strains; >128 apparently counted as 256; read-out: nGM (–), geometric mean of the MICs against gram-negative strains
Protocol: as §2

[2] = test system: gram-positive strains tested; assay: organism not typed; assay type: cell-based
Protocol: as §2

[3] = test system: all the 9 bacteria tested; assay: Geometric mean of MICs, all 9 bacteria; assay type: cell-based; details: for GM MIC (range of Gram-negative and Gram-positive geometric means): Table 2; for tGM, geometric mean of the MICs against all the 9 bacteria: all 9 bacteria tested
Protocol: as §2

[4] = test system: human red blood cells (hRBCs); assay: Hemolysis assay; assay type: cell-based
Protocol: Figure 2 (A) Hemolytic activity of the engineered peptides against human red blood cells (hRBCs). The hRBCs were incubated with equal amounts of the respective peptides dissolved in PBS for 1 h at 37 °C. (B) Cytotoxicity of the engineered peptides against RAW264.7. […] Data shown are three independent experiments.
The hemolytic activity of the peptides is determined by measuring the amount of hemoglobin released during the lysis of human erythrocytes at different concentrations of AMPs. Briefly, fresh, healthy human red blood cells (hRBCs) were collected and then washed three times with phosphate-buffered saline (PBS) buffer (pH 7.2) and centrifuged at 1000× g for 5 min. Each 50 µL sample of hRBCs was incubated with 50 µL of the respective peptide dissolved in PBS in a well of a 96-well plate for 1 h at 37 °C. After incubation, the samples were centrifuged at 1000× g for 5 min and the supernatants (50 μL) were transferred to a new 96-well microplate. The release of hemoglobin was measured by monitoring the OD at 570 nm (Tecan, Salzburg, Austria). Negative (hRBCs without AMP treatment) and positive (hRBCs treated with 0.1% TritonX-100) controls were used. The concentration of peptide that caused 5% hemolysis was considered the minimal hemolysis concentration (MHC). The test was repeated three times. The percent hemolysis was calculated using the following formula:(2) Percent hemolysis=A−A0/At−A0× 100% A0 and At represent 0% and 100% hemolysis as measured in 10 mM PBS and 0.2% Triton X-100, respectively.

| Compound | MIC [1] [µM] | GM MIC (range of Gram-negative and Gram-positive geometric means) [3] [µM] | MIC (E. coli 25922; 25922, 20 h) [µM] | MIC (E. coli UB 1005; UB 1005, 20 h) [µM] | MIC (S. aureus 25923; 25923, 20 h) [µM] | MIC (S. aureus 29213; 29213, 20 h) [µM] | MIC (MRSA43300; 20 h) [µM] | MIC (P. aeruginosa 27853; 27853, 20 h, read-out: MIC) [µM] | MIC (S. epidermidis 12228; 12228, 20 h) [µM] | MIC (S. typhimurium 14028; 14028, 20 h) [µM] | MIC (S. typhimurium 7731; 7731, 20 h) [µM] | pGM (+), geometric mean of the MICs against gram-positive strains ([2]; 20 h) [µM] | tGM, geometric mean of the MICs against all the 9 bacteria [3] [µM] | MHC5, minimum hemolytic concentration that induced ≥5% hemolysis ([4]; red cells of human, 1 h) [µM] | also measured |
| --- | --- | --- | --- | --- | --- | --- | --- | --- | --- | --- | --- | --- | --- | --- | --- |
| O=C(N[C@H](CO)[C@H](O)c1ccc([N+](=O)[O-])cc1)C(Cl)Cl [CH, Chloramphenicol, reference compound] | 18.4 (≈ 5.95 µg/mL) | 18.4 to 22.6 |  |  |  |  |  |  |  |  |  |  |  |  | MIC (E. coli 25922; Escherichia coli, E. coli 25922, MHB, 10^5 CFU/mL, 0.5–128 μM peptide, 20 h 37 °C, OD 492 nm, repeated three times): 16 µM (≈ 5.17 µg/mL); MIC (E. coli UB 1005; Escherichia coli, UB1005, E. coli UB 1005, MHB, 10^5 CFU/mL, 20 h 37 °C, repeated three times): 4 µM (≈ 1.29 µg/mL); MIC (S. aureus 25923; Staphylococcus aureus, S. aureus 25923, MHB, 10^5 CFU/mL, 20 h 37 °C, repeated three times): 32 µM (≈ 10.3 µg/mL); MIC (S. aureus 29213; Staphylococcus aureus, S. aureus 29213, MHB, 10^5 CFU/mL, 20 h 37 °C, repeated three times): 8 µM (≈ 2.59 µg/mL); MIC (MRSA43300; Staphylococcus aureus, MRSA43300, MHB, 10^5 CFU/mL, 20 h 37 °C, repeated three times): 32 µM (≈ 10.3 µg/mL); MIC (P. aeruginosa 27853; Pseudomonas aeruginosa, 27853, 20 h): > 128 µM; MIC (S. epidermidis 12228; Staphylococcus epidermidis, S. epidermidis 12228, MHB, 10^5 CFU/mL, 20 h 37 °C, repeated three times): 32 µM (≈ 10.3 µg/mL); MIC (S. typhimurium 14028; Salmonella enterica, S. typhimurium 14028, MHB, 10^5 CFU/mL, 20 h 37 °C, repeated three times): 16 µM (≈ 5.17 µg/mL); MIC (S. typhimurium 7731; Salmonella enterica, S. typhimurium 7731, MHB, 10^5 CFU/mL, 20 h 37 °C, repeated three times): 8 µM (≈ 2.59 µg/mL); MIC ([2]; read-out: pGM (+), geometric mean of the MICs against gram-positive strains): 22.6 µM (≈ 7.3 µg/mL); MIC ([3]; read-out: tGM, geometric mean of the MICs against all the 9 bacteria): 20.2 µM (≈ 6.53 µg/mL); MHC5, minimum hemolytic concentration that induced ≥5% hemolysis ([4]; human red blood cells, PBS, 1 h at 37 °C, OD 570 nm, repeated three times): >128 µM |
| CC[C@H](C)[C@H](N)C(=O)N[C@@H](CCCNC(=N)N)C(=O)N[C@H](C(=O)N[C@@H](CCCNC(=N)N)C(=O)N1CCC[C@@H]1C(=O)N[C@H](C(=O)N[C@@H](CCCNC(=N)N)C(=O)N[C@H](C(=O)N[C@@H](CCCNC(=N)N)C(=O)N1CCC[C@@H]1C(=O)O)[C@@H](C)CC)[C@@H](C)CC)[C@@H](C)CC [DIR2] (H-IRIR[dP]IRIR[dP]-OH) | 194.0 (≈ 250 µg/mL) |  | 128 (≈ 165 µg/mL) | 128 (≈ 165 µg/mL) | >128 | >128 | >128 | >128 | >128 | >128 | >128 | 256 | 219.5 | >128 |  |
| CC[C@H](C)[C@H](N)C(=O)N[C@@H](CCCNC(=N)N)C(=O)N[C@H](C(=O)N[C@@H](CCCNC(=N)N)C(=O)N[C@H](C(=O)N[C@@H](CCCNC(=N)N)C(=O)N1CCC[C@@H]1C(=O)N[C@H](C(=O)N[C@@H](CCCNC(=N)N)C(=O)N[C@H](C(=O)N[C@@H](CCCNC(=N)N)C(=O)N[C@H](C(=O)N[C@@H](CCCNC(=N)N)C(=O)N1CCC[C@@H]1C(=O)O)[C@@H](C)CC)[C@@H](C)CC)[C@@H](C)CC)[C@@H](C)CC)[C@@H](C)CC [DIR3] (H-IRIRIR[dP]IRIRIR[dP]-OH) |  |  | 4 (≈ 7.31 µg/mL) | 4 (≈ 7.31 µg/mL) | 64 (≈ 117 µg/mL) | 8 (≈ 14.6 µg/mL) | 64 (≈ 117 µg/mL) | 8 (≈ 14.6 µg/mL) | 128 (≈ 234 µg/mL) | 16 (≈ 29.3 µg/mL) | 4 (≈ 7.31 µg/mL) | 45.3 |  | >128 |  |
| Colistin Sulfate [CS, reference compound] | 0.8 | 0.8 to 76.1 |  |  |  |  |  |  |  |  |  |  | 5.9 |  | MIC (E. coli 25922; E. coli 25922, MHB, 10^5 CFU/mL, 0.5–128 μM peptide, 20 h 37 °C, OD 492 nm, repeated three times): 0.5 µM; MIC (E. coli UB 1005; E. coli UB 1005, MHB, 10^5 CFU/mL, 20 h 37 °C, repeated three times): 0.5 µM; MIC (S. aureus 25923; S. aureus 25923, MHB, 10^5 CFU/mL, 20 h 37 °C, repeated three times): 64 µM; MIC (S. aureus 29213; S. aureus 29213, MHB, 10^5 CFU/mL, 20 h 37 °C, repeated three times): 64 µM; MIC (MRSA43300; MRSA43300, MHB, 10^5 CFU/mL, 20 h 37 °C, repeated three times): 64 µM; MIC (P. aeruginosa 27853; P. aeruginosa 27853, MHB, 10^5 CFU/mL, 20 h 37 °C, repeated three times, read-out: MIC): 0.5 µM; MIC (S. epidermidis 12228; S. epidermidis 12228, MHB, 10^5 CFU/mL, 20 h 37 °C, repeated three times): 128 µM; MIC (S. typhimurium 14028; S. typhimurium 14028, MHB, 10^5 CFU/mL, 20 h 37 °C, repeated three times): 4 µM; MIC (S. typhimurium 7731; S. typhimurium 7731, MHB, 10^5 CFU/mL, 20 h 37 °C, repeated three times): 0.5 µM; pGM (+), geometric mean of the MICs against gram-positive strains ([2]; 4 gram-positive strains, >128 apparently counted as 256): 76.1 µM |
| IRIRIRPIRIRIRP [IR3] | 12.1 |  | 16 | 8 | 64 | 64 | 64 | 8 | >128 | 16 | 16 | 90.5 |  | >128 |  |
| IRIRPIRIRP [IR2] | 256 |  | >128 | >128 | >128 | >128 | >128 | >128 | >128 | >128 | >128 | 256 | 256 | >128 |  |

Source: publication PMC6928678, “Simplified Head-to-Tail Cyclic Polypeptides as Biomaterial-Associated Antimicrobials with Endotoxin Neutralizing and Anti-Inflammatory Capabilities” (International Journal of Molecular Sciences, 2019)
